According to patent publication US10016396B2, “Dexmedetomidine premix formulation” (Hospira, Inc., priority 2012, dated 2018):
Where a name gives a salt, the structure may show the parent alone. Read-outs that look alike come from different tables or passages of the source.

Procedure: The stability of dexmedetomidine hydrochloride to acidic, basic, oxidative and photolytic stress was examined. […] Each sample was injected in duplicate.

degradation compared to the control sample (8 h, 13.3 μg/mL): 12.7% | Assay (Acid Sample: 5N Hydrochloric Acid, 60° C., 8 hours): 95.2% | Assay (Base Sample: 2N Sodium Hydroxide, 60° C., 4 hours): 93.8% | Assay (Control Sample, not subjected to any stress): 98.4% | Assay (Heat Sample: 60° C., 8 hours): 98.4% | Assay (Light Sample: photochemical reaction unit, 24 hours): 92.0% | Assay (Oxidation Sample: 0.3% Hydrogen Peroxide, 60° C., 8 hours): 85.7%
SMILES: Cc1cccc([C@H](C)c2cnc[nH]2)c1C [dexmedetomidine hydrochloride]
